From patent US20150065470A1, “Steroid Sulfatase Inhibitor Regimen for the Treatment of Endometriosis” (priority 2012, published 2015)
Values joined by “and” are separate entries in the source; they are usually repeats but may differ in a detail not shown here. Equal entries are not always repeated.

Key:
STS activity in PBMCs = target: T1, STS activity in PBMCs (Homo sapiens, UniProt P08842); test: STS activity in PBMCs, Example 2 (LC-MS/MS); format: in vivo; conditions: E2MATE 4 mg weekly and/or NETA 10 mg daily for 4 weeks
T1 construct: Pharmacodynamic properties were investigated by assessment of the STS activity in PBMCs; endogenous in cells; host or cells: peripheral blood mononuclear cells (PBMCs) of dosed women
T1 sequence (P08842 22-583): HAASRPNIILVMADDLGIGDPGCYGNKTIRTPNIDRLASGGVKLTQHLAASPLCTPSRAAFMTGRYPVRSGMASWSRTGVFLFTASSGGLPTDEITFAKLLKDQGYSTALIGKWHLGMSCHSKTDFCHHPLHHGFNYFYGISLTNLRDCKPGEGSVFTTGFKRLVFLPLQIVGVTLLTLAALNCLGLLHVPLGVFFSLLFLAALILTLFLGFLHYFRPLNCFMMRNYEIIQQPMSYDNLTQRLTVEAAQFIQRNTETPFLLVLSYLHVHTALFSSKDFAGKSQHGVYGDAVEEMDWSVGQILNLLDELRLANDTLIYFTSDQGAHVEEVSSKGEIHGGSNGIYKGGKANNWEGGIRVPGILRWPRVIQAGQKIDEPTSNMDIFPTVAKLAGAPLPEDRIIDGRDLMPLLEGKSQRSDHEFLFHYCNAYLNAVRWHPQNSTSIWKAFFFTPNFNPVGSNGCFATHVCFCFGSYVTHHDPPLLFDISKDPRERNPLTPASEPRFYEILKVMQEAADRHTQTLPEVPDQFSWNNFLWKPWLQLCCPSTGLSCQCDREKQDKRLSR
Procedure: (§3) STS activity was determined by spiking specimens with labelled E1-S and by measuring its conversion to E1 per gram protein under standardized incubation conditions using LC-MS/MS. Protein concentration was evaluated with a validated colorimetric assay (Bradford method).

STS [1] = test: E1-S to E1 and DHEA-S to DHEA ratios, Example 1; format: in vivo, human; conditions: multiple doses 0.25, 1, 4 mg weekly x4
Procedure: (§1) Pharmacodynamic properties were investigated by assessment of the STS activity in PBMCs and by measurement of the serum hormonal profile comprising the ratio of E1-S to E1 and DHEA-S to DHEA. […] Hormone profiles were analysed using commercially available ELISA or RIA kits.

[2] = Safety, tolerability and ovarian cycle parameters, Example 1
Procedure: Treatment was started within 72 hours after the beginning of menstrual bleeding.
Ovarian and endometrium transvaginal ultrasounds throughout the study (Part A and B) and an endometrial biopsy (Part B only) were performed.

E2 and P4; T and D4A = test: Hormone profiles (E2, P4, T, D4A), Example 2; format: in vivo, human
Procedure: (§2) Hormone profiles were determined as described in Example 1.

STS [3] = target: T2, STS (Homo sapiens, UniProt P08842); conditions: cited from earlier work
T2 sequence (P08842 22-583): T1 sequence (P08842 22-583)

[4] = target: T3, Steroid Sulfatase in endometrium (Homo sapiens, UniProt P08842); test: STS activity in endometrium, Example 2 (LC-MS/MS); format: in vivo
T3 construct: from tissue; host or cells: endometrium (biopsies) of dosed women
T3 sequence (P08842 22-583): T1 sequence (P08842 22-583)
Procedure: as §3

E2 (serum estradiol) = test: Serum hormonal profile incl. estradiol concentrations, Example 1; format: in vivo, human
Procedure: as §1

STS [5] = test: Functional biomarkers of STS activity (E1-S to E1 and DHEA-S to DHEA ratios), Example 2; format: in vivo, human
Procedure: as §2
As described before, STS converts sulphate precursors of estrogens.

[6] = target: T4, STS activity in Peripheral Blood Mononuclear Cells (PBMCs) (Homo sapiens, UniProt P08842); test: STS inhibition in PBMCs, loading and maintenance phase, Example 4; format: in vivo; conditions: concomitant NETA 5 mg daily, patients
T4 construct: Pharmacodynamic properties were investigated by assessment of the STS activity in PBMCs; endogenous in cells; host or cells: peripheral blood mononuclear cells (PBMCs) of dosed women
T4 sequence (P08842 22-583): T1 sequence (P08842 22-583)
Excerpt: The study is multicentre, randomised, two-arm, parallel group, double-blind, placebo controlled where eligible subjects were randomised on study day 1 in a 1:1 ratio into treatment group A or B between day 1 and day 4 of the menstrual bleeding.
The baseline is established in terms of endometriosis profile regarding pelvic pain, dysmenorrhea, dyspaneuria and bleeding pattern and those parameters are followed during the treatment. During the loading phase the subjects are monitored on day 7, day 21 and on week 4 and during the maintenance phase monthly on week 8, week 12 and week 16.

[7] = test system: endometriosis-like lesion; conditions: daily oral dose of 0.5 or 1 mg/kg for 21 days, cited from earlier work
[8] = Pharmacokinetic model: accumulation of E2MATE+EMATE, Example 3; parameters: species or system human
Procedure: As shown on FIG. 2, the accumulation ratio (Racc) based on the accumulation between two doses during one week time could be calculated. […] This could be achieved for example by the administration of 1 mg every 3 days or 2 mg per week (FIG. 2B).

[9] = multiple dose 0.25 mg weekly x4, Cycle 1
[10] = multiple dose 0.25 mg weekly x4, Cycle 2
[11] = multiple dose 0.25 mg weekly x4, Cycle 3
[12] = multiple dose 1 mg weekly x4, Cycle 1
[13] = multiple dose 1 mg weekly x4, Cycle 2
[14] = multiple dose 1 mg weekly x4, Cycle 3
[15] = multiple dose 4 mg weekly x4, Cycle 1
[16] = multiple dose 4 mg weekly x4, Cycle 2
[17] = multiple dose 4 mg weekly x4, Cycle 3
[18] = NETA treatment period, days 8 to 29

**Q.** Which results are given for `C[C@]12CC[C@@H]3c4ccc(OS(N)(=O)=O)cc4CC[C@H]3[C@@H]1CC[C@@H]2O` [E2MATE, Estradiol-3-o-sulfamate]?
**A.** mean percentage inhibition of STS activity in PBMCs (STS activity in PBMCs; Day 4): 90%; percentage inhibition of STS activity in PBMCs (STS activity in PBMCs; Day 113): 37%; average inhibition of STS activity in PBMCs (STS activity in PBMCs): 82.6%; mean maximal inhibition of STS activity in PBMCs (STS activity in PBMCs): 94.7%; turn-over of E1-S to E1 (STS [1]): dose-dependent decreased turn-over; cycle length ([2]; in vivo): not affected; endometrial thickness assessed by TVUS, between treatment groups ([2]; in vivo): no clinically relevant differences; number of measurable follicles / subjects with follicles >10 mm ([2]; in vivo): No clinically relevant effects; tolerability ([2]; multiple doses of 0.25, 1 mg and 4 mg weekly x4): well tolerated; tolerability ([2]; single doses of 0.25 mg, 1 mg, 4 mg and 8 mg): well tolerated; mean concentration-time profiles in E2 and P4 (E2 and P4; T and D4A; first cycle up to Day 29, normal increase on Day 43): Normal mean concentration-time profiles; mean concentration-time profiles for T and D4A (E2 and P4; T and D4A; multiple dose administration): No relevant differences; STS inhibition (STS [3]): active STS inhibitors; AVG [%] average inhibition of Steroid Sulfatase in endometrium (average effect over time (AUC)) ([4]; E2MATE 4 mg weekly and/or NETA 10 mg daily for 4 weeks): 66.6 (2.7) % and 66.60%; STS inhibition [%] in endometrium ([4]; end of treatment, between Day 25 and Day 29): 91% and 90.66%; Emax ([4]; read-out: Emax [%] maximal inhibition of Steroid Sulfatase in endometrium): 91%; STS inhibition [%] in endometrium, After treatment ([4]; third biopsy day, 1 month after the end of the treatment (approximately 50 days after dosing)): 88% and 87.50%; Avg estradiol concentration, Mean (E2 (serum estradiol); [9]): 135.7 ng/L; Max estradiol concentration, Mean (E2 (serum estradiol); [9]): 305.3 ng/L; Avg estradiol concentration, Mean (E2 (serum estradiol); [10]): 116.0 ng/L; Max estradiol concentration, Mean (E2 (serum estradiol); [10]): 260.5 ng/L; Avg estradiol concentration, Mean (E2 (serum estradiol); [11]): 107.1 ng/L; Max estradiol concentration, Mean (E2 (serum estradiol); [11]): 185.4 ng/L; Avg estradiol concentration, Mean (E2 (serum estradiol); [12]): 126.0 ng/L; Max estradiol concentration, Mean (E2 (serum estradiol); [12]): 278.6 ng/L; Avg estradiol concentration, Mean (E2 (serum estradiol); [13]): 109.0 ng/L; Max estradiol concentration, Mean (E2 (serum estradiol); [13]): 193.4 ng/L; Avg estradiol concentration, Mean (E2 (serum estradiol); [14]): 110.0 ng/L; Max estradiol concentration, Mean (E2 (serum estradiol); [14]): 221.6 ng/L; Avg estradiol concentration, Mean (E2 (serum estradiol); [15]): 134.8 ng/L; Max estradiol concentration, Mean (E2 (serum estradiol); [15]): 317.8 ng/L; Avg estradiol concentration, Mean (E2 (serum estradiol); [16]): 100.9 ng/L; Max estradiol concentration, Mean (E2 (serum estradiol); [16]): 207.7 ng/L; Avg estradiol concentration, Mean (E2 (serum estradiol); [17]): 94.9 ng/L; Max estradiol concentration, Mean (E2 (serum estradiol); [17]): 180.9 ng/L; differences in mean concentration-time profiles of E2, P4, LH, FSH, T and D4A compared to placebo (E2 (serum estradiol); multiple dose administration): No clinically relevant dose-related differences; Avg (weighted average) estradiol concentration, Mean (E2 (serum estradiol); single dose 0.25 mg E2MATE): 141.2 ng/L; Max estradiol concentration, Mean (E2 (serum estradiol); single dose 0.25 mg E2MATE): 335.1 ng/L; Avg (weighted average) estradiol concentration, Mean (E2 (serum estradiol); single dose 1 mg E2MATE): 131.0 ng/L; Max estradiol concentration, Mean (E2 (serum estradiol); single dose 1 mg E2MATE): 318.1 ng/L; Avg (weighted average) estradiol concentration, Mean (E2 (serum estradiol); single dose 4 mg E2MATE): 113.8 ng/L; Max estradiol concentration, Mean (E2 (serum estradiol); single dose 4 mg E2MATE): 275.3 ng/L; Avg (weighted average) estradiol concentration, Mean (E2 (serum estradiol); single dose 8 mg E2MATE): 109.3 ng/L; Max estradiol concentration, Mean (E2 (serum estradiol); single dose 8 mg E2MATE): 221.1 ng/L; effects on mean concentration-time profiles of E2, P4, LH, FSH, T and D4A compared to placebo (E2 (serum estradiol); single dose administration): No clinically relevant effects; Baseline relative change of the DHEA-S/DHEA [%] (STS [5]; Day 1): 0%; Baseline relative change of the E1-S/E1 [%] (STS [5]; Day 1): 0%; Baseline relative change of the DHEA-S/DHEA [%] (STS [5]; Day 8): 133%; Baseline relative change of the E1-S/E1 [%] (STS [5]; Day 8): 208%; Baseline relative change of the DHEA-S/DHEA [%] (STS [5]; Day 15): 116%; Baseline relative change of the E1-S/E1 [%] (STS [5]; Day 15): 282%; Baseline relative change of the DHEA-S/DHEA [%] (STS [5]; Day 22): 113%; Baseline relative change of the E1-S/E1 [%] (STS [5]; Day 22): 218%; Baseline relative change of the DHEA-S/DHEA [%] (STS [5]; Day 29): 148%; Baseline relative change of the E1-S/E1 [%] (STS [5]; Day 29): 194%; Baseline relative change of the DHEA-S/DHEA [%] (STS [5]; Day 57): 195%; Baseline relative change of the E1-S/E1 [%] (STS [5]; Day 57): 218%; Baseline relative change of the DHEA-S/DHEA [%] (STS [5]; Day 85): 232%; Baseline relative change of the E1-S/E1 [%] (STS [5]; Day 85): 243%; Baseline relative change of the DHEA-S/DHEA [%] (STS [5]; Day 113): 175%; Baseline relative change of the E1-S/E1 [%] (STS [5]; Day 113): 400%; baseline relative mean increases of the DHEA-S to DHEA ratio (up to) (STS [5]; [18]): up to 265%; baseline relative mean increases of the E1-S to E1 ratio (up to) (STS [5]; [18]): up to 282%; STS inhibition in PBMCs after the loading phase ([6]; Day 28, 16 mg over 4 weeks): almost complete; STS inhibition in PBMCs at maintenance dose ([6]; Day 56, 2 mg/week): almost entire; lesion weight and size ([7]; end of treatment): decreased; histology of the uterus (indicative of some estrogenic activity) [7]: some stromal oedema was observed; number of lesions [7]: without a reduction; accumulation ratio (Racc) of E2MATE+EMATE ([8]; Cmin 504 h versus Cmin 168 h, 4 mg/week during 4 weeks): about 2.7; E2MATE dose necessary to maintain the blood levels reached after the loading period ([8]; after loading 4 mg/week during 4 weeks): 0.36 mg/day
